Reference: patent US8183048B2, “Assay for screening/ranking antioxidants based on their effects on membrane sterol lateral organization” (Temple University- Of the Commonwealth System of Higher …, priority 2007, dated 2012)
Several values for one entry are separate records, joined by “and”; a condition that tells them apart may be missing. Equal entries are not always repeated. Entries after “also recorded” stand apart in the source; their conditions may differ.

Experiments:
[1] = AAPH-induced DHE oxidation, antioxidant-induced lag phase vs sterol mol % (sterol superlattice assay); assay type: biochemical
Protocol: Two-component or multi-component models of large unilamellar vesicles (LUVs) containing DHE (dehydroergosterol) are prepared as described above. The sizes of LUVs are in the range of 100-800 nm in diameter. [Please quantify the term “large”]. A prooxidant or a free radical generator is added to a fluorescence cuvette containing LUVs that have been incubated with an antioxidant. In certain embodiments, sterol oxidation was induced by a water-soluble free radical generator, AAPH (2,2′-azobis(2-amidinopropane) dihydrochloride). […] Plotting the lag phase length (τ) (or the initial rate Ri, in the case of lacking lag phase) vs sterol mole fraction in the presence of low dose antioxidant, a biphasic change in (or Ri) at a given Cr (e.g., 20.0, 22.2, 25.0, 33.3, 40.0 and 50.0 mol % sterol) is observed (see FIGS. 4, 8, and 9). This experiment will be repeated at different antioxidant doses. A threshold antioxidant concentration (Cth) is the highest antioxidant concentration at which the biphasic change in τ with sterol mol % may still be detected. The τ, Ri, and Cth values will give information about the antioxidant activity or potency and side effects. The τ and Ri values will give information about the antioxidant activity or potency. […] The ratio of the Ri value in the presence of antioxidants to that in the absence of antioxidants (Ri/Rio) also reflects the potency of the antioxidant. […] The Cth value indicates the potential toxicity of the antioxidant. The lower the Cth value is, the higher the potential damage to cell membranes becomes. The Cth values will be determined based on the capability of the antioxidant to abolish the biphasic change of either τ or Ri with membrane sterol mole fraction. All of the antioxidants, either producing τ or Ri, can be compared and ranked based on the Cth values.
Dehydroergosterol (DHE; Sigma, St. Louis, Mo.) was first purified by HPLC, and then dissolved in CHCl3 to make a stock solution. The concentration of DHE stock solution was calculated by absorbance in dioxane at 326 nm, using an extinction coefficient equal to 10,600 M^−1 cm^−1. DMPC was purchased from Avanti Polar Lipids (Alabaster, Ala.). The concentration of DMPC in stock solution and in LUVs was determined by the method of Bartlett (61). The prooxidant AAPH ((2,2′-azobis(2-amidinopropane) dihydrochloride) was obtained from Aldrich (Milwaukee, Wis.). Ascorbic acid and ascorbyl palmitate were purchased from Sigma.
Calculated amounts of DMPC and DHE were pipetted into tubes and dried under N2 until there was no visible solvent; lipids were then dried overnight under vacuum. Next, lipids were reconstituted at 37° C. with 5.0 mL of 50 mM Tris-HCl buffer at pH 7.0 (containing 0.02% NaN3 and 0.1 mM EDTA), then flushed with N2, and vortexed for 2 min at 37° C. to form multilamellar vesicles (MLVs). The MLVs were cooled to 4° C. for 30 min and then incubated at 37° C. for 30 min. This cooling/heating cycle was repeated three times to ensure an even distribution of lipids within each monolayer of the vesicles. After being exposed to three cycles of heat/cold to allow for thorough mixing, vesicles were left for 4 days at room temperature to come to thermal equilibrium. LUVs were then prepared from MLVs by extrusion (Lipex Biomembranes Inc., Vancouver, BC, Canada). The MLVs were extruded at 37° C. 10 times through two stacked 200 nm Nucleopore polycarbonate filters (Costar) under nitrogen gas pressure to form homogeneous LUVs. To avoid auto-oxidation of sterol, the LUV samples were flushed with argon, sealed, and stored in a dessicator chamber under vacuum at room temperature for seven days prior to sterol oxidation measurements (50). During this time, phosphorus concentration was measured again to determine new phospholipid concentration after loss by extrusion (53).
A typical LUV sample set spanned a predicted critical sterol mole fraction (Cr) for maximal superlattice formation. […]

[2] = AAPH-induced sterol oxidation, initial rate (Ri) vs sterol mol %; assay type: biochemical
Source text: The main purpose of this assay is to determine the Cth value for the antioxidant ALA, which is both water and lipid soluble. […] Ri came from monitoring DHE fluorescence intensity after addition of AAPH. […] In this case (the right panel in the flow chart—FIG. 9), the initial rate of sterol oxidation (Ri), instead of the lag phase, is used as the parameter to reflect the potency of an antioxidant activity. […] The membrane system is: 1-palmitoyl-2-oleoyl-L-α-phosphatidylcholine (POPC)/porcine brain sphingomyelins (pSPMs)/DHE LUVs. This biphasic change is expected from the sterol superlattice theory and is consistent with our previous finding (43). […] In this case, the Cth value is determined to be >>5 mM, if there is any. Vertical bars are the standard deviations from three independently prepared samples. The experiment was carried out at 37-42° C.
The term “Ri” as used herein means the initial rate of sterol oxidation in sec^−1. Ri can be calculated as follows: Ri equals [(Normalized fluorescence intensity of DHE at time t) minus (normalized fluorescence intensity of DHE at time 0)] divided by (t−0). Initial rate of sterol oxidation is calculated from the slope of DHE fluorescence intensity decrease vs time. […] Each sample set spanning a critical mole fraction must be analyzed separately in order to get an accurate picture for that particular set of vesicles. […] One reason for these slight variations is due to the high sensitivity of fluorescence signals. Fluorescence intensity is a relative value, depending on the amount of fluorophore in the cuvette, sample mixing, temperature fluctuations, and quenching due to impurities in the sample. For this reason, each complete set is analyzed separately, but all sets are normalized so that they can be compared to each other. Each sample set is analyzed by examining the first five to ten minutes of fluorescence decay in a sequential manner. […] Within a sample set, the deviation from linearity can be determined, and the number of minutes that will be used to calculate the initial rate can be defined. […]

[3] = sample set 23.8-26.2 mol %, Cr 25.0 mol %, FIG. 5
[4] = sample set 38.8-41.2 mol %, Cr 40.0 mol %, FIG. 6

O=C1O[C@H]([C@@H](O)CO)C(O)=C1O [ascorbic acid]
Cth (threshold antioxidant concentration above which biphasic profile of lag phase at Cr is no longer observable) ([1]; sample set 18.8-21.2 mol % DHE in DMPC, Cr 20.0 mol %, FIG. 4): ≥ 30 µM
Cth (biphasic change in lag phase with sterol content abolished) [1, 3]: ≥ 30 µM
Cth (biphasic change in lag phase with sterol content abolished) [1, 4]: ≥ 120 µM

CCCCCCCCCCCCCCCC(=O)OC[C@H](O)[C@H]1OC(=O)C(O)=C1O [ascorbyl palmitate]
Cth (threshold antioxidant concentration for sterol superlattice disruption) ([1]; DMPC/DHE LUVs, 37° C., all three sample sets (Cr 20.0, 25.0, 40.0 mol %)): 13 to 15 µM and 13.1 to 15.0 µM
lag phase length relative to ascorbic acid ([1]; same apparent dose, FIGS. 2 and 3): much more potent; also recorded: about three
Cth (biphasic change in lag phase with sterol content abolished) [1, 3]: 11.3 to 15.0 µM
Cth (biphasic change in lag phase with sterol content abolished) [1, 4]: 13.1 to 15.0 µM
concentration at which the biphasic profile of lag phase is obliterated ([1]; sample set spanning Cr 20.0 mol % DHE, FIG. 4): ≥ 15.0 µM
concentration at which the biphasic profile of lag phase is obliterated ([1]; sample set spanning Cr 25.0 mol % DHE, FIG. 5): ≥ 15.0 µM
concentration at which the biphasic profile of lag phase is obliterated ([1]; sample set spanning Cr 40.0 mol % DHE, FIG. 6): ≥ 15.0 µM

O=C(O)CCCCC1CCSS1 (stereo not drawn) [ALA, alpha lipoic acid]
lag phase in AAPH-induced sterol oxidation ([2]; AAPH-induced DHE fluorescence decay): does not generate a lag phase
effect on initial rate of sterol oxidation (Ri) ([2]; AAPH-induced DHE oxidation, increasing ALA doses): Ri decreases with increasing ALA doses; also recorded: dose-dependent decrease
Cth (from biphasic change of Ri with sterol content) ([2]; POPC/pSPMs/DHE LUVs, Cr 20.0 mol %, 37-42° C., FIG. 8): > 5 mM
